Earlier results in US8748589B2, “Complex crystalline sugar comprising D-psicose and D-allose and process for production of the same” (priority 2005, dated 2014).

Test system: L-rhamnose isomerase
Conditions: for inhibition of L-rhamnose isomerase activity by coexisting chelating agent: chelating agent present at the time of measurement of the activity

Row | SMILES | inhibition of L-rhamnose isomerase activity by metal ion (1 mM cobalt ion) | inhibition of L-rhamnose isomerase activity by coexisting chelating agent
1 | [Co+2] [cobalt ion] | About 30% | –
2 | O=C(O)CN(CCN(CC(=O)O)CC(=O)O)CC(=O)O [EDTA] | – | Almost no activity was inhibited
3 | O=C(O)CN(CCOCCOCCN(CC(=O)O)CC(=O)O)CC(=O)O [EGTA] | – | Almost no activity was inhibited
